Experimental data: patent US8822503B2, “2-pyridone compounds” (Taisho Pharmaceutical Co., Ltd, priority 2009, dated 2014)

Biological target: T1, human liver GK (Homo sapiens, UniProt P35557)
T1 construct: GST (glutathione S-transferase) (N); made in house; host or cells: E. coli
T1 sequence (P35557 1-466 isoform P35557-2): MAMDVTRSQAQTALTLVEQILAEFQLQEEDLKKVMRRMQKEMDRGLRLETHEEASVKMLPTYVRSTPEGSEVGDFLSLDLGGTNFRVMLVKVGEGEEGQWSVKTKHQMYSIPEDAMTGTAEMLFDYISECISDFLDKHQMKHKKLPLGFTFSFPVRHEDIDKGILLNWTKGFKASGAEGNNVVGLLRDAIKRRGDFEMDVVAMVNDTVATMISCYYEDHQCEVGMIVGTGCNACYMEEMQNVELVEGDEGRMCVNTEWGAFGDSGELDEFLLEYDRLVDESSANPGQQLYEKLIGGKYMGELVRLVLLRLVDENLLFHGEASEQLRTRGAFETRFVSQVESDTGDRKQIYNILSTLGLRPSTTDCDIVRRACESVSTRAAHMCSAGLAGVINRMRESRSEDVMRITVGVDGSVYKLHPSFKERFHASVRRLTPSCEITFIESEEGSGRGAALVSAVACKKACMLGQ
Experiment: GK activation test
Format: biochemical
Conditions: test compound concentration needed to activate 50% of maximum activation ability; 4 mM 14C-labeled glucose, 2 mM ATP, room temperature, 20 minutes
Summary of the method: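 GST-tagged human liver GK from E. coli (0.24 μg/well) with 4 mM 14C-glucose, 2 mM ATP in Hepes-KOH pH 7.1, KCl, MgCl2, DTT, 1% DMSO, 20 min room temperature. Labeled glucose 6-phosphate captured on anion resin, eluted and counted. EC50 = concentration giving half of maximal activation.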

SMILES	EC50 [nM]
O=C1CC[C@H](/C=C(\c2ccc(C(F)(F)F)cc2)c2ccc(CCCCO)c(=O)[nH]2)N1 [Example 4-200, 3-(4-Hydroxybutyl)-6-{(E)-2-[(2R)-5-oxopyrrolidin-2-yl]-1-[4-(trifluoromethyl)phenyl]ethenyl}pyridin-2(1H)-one]	500 to 3000
CC(C)(C)c1ccc(/C(=C\[C@H]2CCC(=O)N2)c2ccc(CCC(N)=O)c(=O)[nH]2)cc1 [Example 4-201, 3-(6-{(E)-1-(4-tert-Butylphenyl)-2-[(2R)-5-oxopyrrolidin-2-yl]ethenyl}-2-oxo-1,2-dihydropyridin-3-yl)propanamide]	500 to 3000
CC(C)(C)c1ccc(/C(=C\[C@H]2CCC(=O)N2)c2ccc(C#N)c(=O)[nH]2)cc1 [Example 4-202, 6-{(E)-1-(4-tert-Butylphenyl)-2-[(2R)-5-oxopyrrolidin-2-yl]ethenyl}-2-oxo-1,2-dihydropyridine-3-carbonitrile]	500 to 3000
CC(C)(C)c1ccc(C(=C[C@H]2CCC(=O)N2)c2ccc(C3(O)CCC3)c(=O)[nH]2)cc1 [Example 4-203, 6-{1-(4-tert-Butylphenyl)-2-[(2R)-5-oxopyrrolidin-2-yl]ethenyl}-3-(1-hydroxycyclobutyl)pyridin-2(1H)-one]	3000 to 10000
CC(C)(C)c1ccc(/C(=C\[C@H]2CCC(=O)N2)c2ccc(Cc3ccccc3)c(=O)[nH]2)cc1 [Example 4-205, 3-Benzyl-6-{(E)-1-(4-tert-butylphenyl)-2-[(2R)-5-oxopyrrolidin-2-yl]ethenyl}pyridin-2(1H)-one]	10 to 500
CSc1ccc(/C(=C/[C@H]2CCC(=O)N2)c2ccc(C(C)(C)C)cc2)[nH]c1=O [Example 4-206, 6-{(E)-1-(4-tert-Butylphenyl)-2-[(2R)-5-oxopyrrolidin-2-yl]ethenyl}-3-(methylsulfanyl)pyridin-2(1H)-one]	10 to 500
O=C1CC[C@H](C[C@H](c2ccc(Cl)c(Cl)c2)c2ccc(C3CC3)c(=O)[nH]2)N1 [Example 4-207, 3-Cyclopropyl-6-{(1R)-1-(3,4-dichlorophenyl)-2-[(2R)-5-oxopyrrolidin-2-yl]ethyl}pyridin-2(1H)-one]	10 to 500
O=C1CC[C@H](C[C@@H](c2ccc(Cl)c(Cl)c2)c2ccc(C3CC3)c(=O)[nH]2)N1 [Example 4-208, 3-Cyclopropyl-6-{(1S)-1-(3,4-dichlorophenyl)-2-[(2R)-5-oxopyrrolidin-2-yl]ethyl}pyridin-2(1H)-one]	3000 to 10000
CCOc1ccc(C(C[C@H]2CCC(=O)N2)c2ccc(Cl)c(=O)[nH]2)cc1F (stereo partly drawn) [Example 4-241, 3-Chloro-6-{1-(4-ethoxy-3-fluorophenyl)-2-[(2R)-5-oxopyrrolidin-2-yl]ethyl}pyridin-2(1H)-one]	3000 to 10000
Cc1ccc(/C(=C\[C@H]2CCC(=O)N2)c2ccc(Cl)c(=O)[nH]2)cc1 [Example 4-256, 3-Chloro-6-{(E)-1-(4-methylphenyl)-2-[(2R)-5-oxopyrrolidin-2-yl]ethenyl}pyridin-2(1H)-one]	500 to 3000
CCc1ccc(/C(=C\[C@H]2CCC(=O)N2)c2ccc(Cl)c(=O)[nH]2)cc1Cl [Example 4-257, 3-Chloro-6-{(E)-1-(3-chloro-4-ethylphenyl)-2-[(2R)-5-oxopyrrolidin-2-yl]ethenyl}pyridin-2(1H)-one]	10 to 500
CC(C)Oc1ccc(/C(=C\[C@H]2CCC(=O)N2)c2ccc(C3CC3)c(=O)[nH]2)cc1Cl [Example 4-258, 6-{(E)-1-[3-Chloro-4-(propan-2-yloxy)phenyl]-2-[(2R)-5-oxopyrrolidin-2-yl]ethenyl}-3-cyclopropylpyridin-2(1H)-one]	10 to 500
O=C1CC[C@H](/C=C(\c2ccc(C(F)(F)F)cc2)c2ccc(C(F)(F)F)c(=O)[nH]2)N1 [Example 4-259, 6-{(E)-2-[(2R)-5-Oxopyrrolidin-2-yl]-1-[4-(trifluoromethyl)phenyl]ethenyl}-3-(trifluoromethyl)pyridin-2(1H)-one]	500 to 3000
COc1ccc(/C(=C\[C@H]2CCC(=O)N2)c2ccc(C3CC3)c(=O)[nH]2)cc1Cl [Example 4-260, 6-{(E)-1-(3-Chloro-4-methoxyphenyl)-2-[(2R)-5-oxopyrrolidin-2-yl]ethenyl}-3-cyclopropylpyridin-2(1H)-one]	10 to 500
O=C1CC[C@H](/C=C(\c2cccc(C(F)(F)F)c2)c2ccc(Cl)c(=O)[nH]2)N1 [Example 4-261, 3-Chloro-6-{(E)-2-[(2R)-5-oxopyrrolidin-2-yl]-1-[3-(trifluoromethyl)phenyl]ethenyl}pyridin-2(1H)-one]	3000 to 10000
O=C1CC[C@H](/C=C(/c2ccc(Cl)c(=O)[nH]2)c2ccc(C(F)(F)F)cc2F)N1 [Example 4-262, 3-Chloro-6-{(E)-1-[2-fluoro-4-(trifluoromethyl)phenyl]-2-[(2R)-5-oxopyrrolidin-2-yl]ethenyl}pyridin-2(1H)-one]	500 to 3000
CC1(C)CCc2cc(/C(=C\[C@H]3CCC(=O)N3)c3ccc(Cl)c(=O)[nH]3)ccc2O1 [Example 4-263, 3-Chloro-6-{(E)-1-(2,2-dimethyl-3,4-dihydro-2H-chromen-6-yl)-2-[(2R)-5-oxopyrrolidin-2-yl]ethenyl}pyridin-2(1H)-one]	500 to 3000
COCCCc1ccc(/C(=C\[C@H]2CCC(=O)N2)c2ccc(Cl)c(=O)[nH]2)cc1 [Example 4-264, 3-Chloro-6-{(E)-1-[4-(3-methoxypropyl)phenyl]-2-[(2R)-5-oxopyrrolidin-2-yl]ethenyl}pyridin-2(1H)-one]	500 to 3000
Cc1cc(/C(=C\[C@H]2CCC(=O)N2)c2ccc(C3CC3)c(=O)[nH]2)ccc1C(F)(F)F [Example 4-265, 3-Cyclopropyl-6-{(E)-1-[3-methyl-4-(trifluoromethyl)phenyl]-2-[(2R)-5-oxopyrrolidin-2-yl]ethenyl}pyridin-2(1H)-one]	10 to 500
O=C1CC[C@H](/C=C(/c2ccc(C3CC3)c(=O)[nH]2)c2ccc(Cl)cc2F)N1 [Example 4-266, 6-{(E)-1-(4-Chloro-2-fluorophenyl)-2-[(2R)-5-oxopyrrolidin-2-yl]ethenyl}-3-cyclopropylpyridin-2(1H)-one]	10 to 500
O=C1CC[C@H](/C=C(/c2ccc(C3CC3)c(=O)[nH]2)c2ccc(C(F)(F)F)cc2F)N1 [Example 4-267, 3-Cyclopropyl-6-{(E)-1-[2-fluoro-4-(trifluoromethyl)phenyl]-2-[(2R)-5-oxopyrrolidin-2-yl]ethenyl}pyridin-2(1H)-one]	10 to 500
O=C1CC[C@H](/C=C(\c2ccc(C3CC3)cc2)c2ccc(C3CC3)c(=O)[nH]2)N1 [Example 4-268, 3-Cyclopropyl-6-{(E)-1-(4-cyclopropylphenyl)-2-[(2R)-5-oxopyrrolidin-2-yl]ethenyl}pyridin-2(1H)-one]	10 to 500
O=C1CC[C@H](/C=C(\c2ccc(OC3CC3)c(Cl)c2)c2ccc(C3CC3)c(=O)[nH]2)N1 [Example 4-269, 6-{(E)-1-[3-Chloro-4-(cyclopropyloxy)phenyl]-2-[(2R)-5-oxopyrrolidin-2-yl]ethenyl}-3-cyclopropylpyridin-2(1H)-one]	10 to 500
O=C1CC[C@H](/C=C(\c2ccc(OCC(F)(F)F)c(Cl)c2)c2ccc(C3CC3)c(=O)[nH]2)N1 [Example 4-270, 6-{(E)-1-[3-Chloro-4-(2,2,2-trifluoroethoxy)phenyl]-2-[(2R)-5-oxopyrrolidin-2-yl]ethenyl}-3-cyclopropylpyridin-2(1H)-one]	10 to 500
CCc1ccc(/C(=C\[C@H]2CCC(=O)N2)c2ccc(C3CC3)c(=O)[nH]2)cc1Cl [Example 4-271, 6-{(E)-1-(3-Chloro-4-ethylphenyl)-2-[(2R)-5-oxopyrrolidin-2-yl]ethenyl}-3-cyclopropylpyridin-2(1H)-one]	10 to 500
O=C1CC[C@H](/C=C(\c2ccc(CC(F)(F)F)cc2)c2ccc(C3CC3)c(=O)[nH]2)N1 [Example 4-272, 3-Cyclopropyl-6-{(E)-2-[(2R)-5-oxopyrrolidin-2-yl]-1-[4-(2,2,2-trifluoroethyl)phenyl]ethenyl}pyridin-2(1H)-one]	10 to 500
O=C1CC[C@H](/C=C(\c2ccc(C(F)F)cc2)c2ccc(C3CC3)c(=O)[nH]2)N1 [Example 4-273, 3-Cyclopropyl-6-{(E)-1-[4-(difluoromethyl)phenyl]-2-[(2R)-5-oxopyrrolidin-2-yl]ethenyl}pyridin-2(1H)-one]	10 to 500
COc1cc(F)c(/C(=C\[C@H]2CCC(=O)N2)c2ccc(C3CC3)c(=O)[nH]2)cc1Cl [Example 4-274, 6-{(E)-1-(5-Chloro-2-fluoro-4-methoxyphenyl)-2-[(2R)-5-oxopyrrolidin-2-yl]ethenyl}-3-cyclopropylpyridin-2(1H)-one]	10 to 500
CC(C)Oc1ccc(/C(=C\[C@H]2CCC(=O)N2)c2ccc(C3CC3)c(=O)[nH]2)cc1F [Example 4-275, 3-Cyclopropyl-6-{(E)-1-[3-fluoro-4-(propan-2-yloxy)phenyl]-2-[(2R)-5-oxopyrrolidin-2-yl]ethenyl}pyridin-2(1H)-one]	10 to 500
CC(C)Oc1ccc(/C(=C\[C@H]2CCC(=O)N2)c2ccc(C3CC3)c(=O)[nH]2)cc1 [Example 4-276, 3-Cyclopropyl-6-{(E)-2-[(2R)-5-oxopyrrolidin-2-yl]-1-[4-(propan-2-yloxy)phenyl]ethenyl}pyridin-2(1H)-one]	10 to 500
